How the values were obtained:
[1] = target: Histone deacetylase; test: Inhibition of HDAC in human HeLa cell nuclear extract using acetylated lysine as substrate after 30 mins by spectrophotometric analysis; type: protein assay
[2] = system: HeLa; test: cells; type: functional, cell-based; conditions: Homo sapiens, 48 h
Description: Growth inhibition of human HeLa cells after 48 hrs by MTT assay

[3] = system: MDA-MB-231; test: cells; type: functional, cell-based; conditions: Homo sapiens, MDA-MB-231, 48 h
Description: Growth inhibition of human MDA-MB-231 cells after 48 hrs by MTT assay

Row | Structure (SMILES) | IC50 [1] [µM] | IC50 [2] [µM] | IC50 [3] [µM]
1 | COc1ccc(/C=C/C(=O)NO)cc1OCC(=O)Nc1ccc(F)c(Cl)c1 | 5.82 |  | 
2 | COc1ccc(/C=C/C(=O)NO)cc1OCC(=O)Nc1cccc(C(F)(F)F)c1 | 2.96 |  | 
3 | COc1ccc(/C=C/C(=O)NO)cc1OCC(=O)Nc1ccc(Cl)c(Cl)c1 | 1.37 | 13.3 | 1.9
4 | COc1ccc(NC(=O)COc2cc(/C=C/C(=O)NO)ccc2OC)cc1 | 0.94 | 4.87 | 3.81
5 | COc1ccc(/C=C/C(=O)NO)cc1OCC(=O)Nc1ccc(Br)cc1 | 0.73 | 5.39 | 5.87
6 | COc1ccc(/C=C/C(=O)NO)cc1OCC(=O)Nc1ccccc1F | 0.57 | 3.91 | 15.6
7 | COc1ccc(/C=C/C(=O)NO)cc1OCC(=O)Nc1cccc(F)c1 | 2.81 | 6.48 | 3.41
8 | COc1ccc(/C=C/C(=O)NO)cc1OCC(=O)Nc1cc(C(F)(F)F)cc(C(F)(F)F)c1 | 4.91 |  | 
9 | COc1ccc(/C=C/C(=O)NO)cc1OCC(=O)Nc1cc(Br)cc(C(F)(F)F)c1 | 9.04 |  | 
10 | COc1ccc(/C=C/C(=O)Nc2ccccc2N)cc1OCC(=O)Nc1ccc(F)c(Cl)c1 | 66.52 |  | 
11 | COc1ccc(/C=C/C(=O)Nc2ccccc2N)cc1OCC(=O)Nc1cccc(C(F)(F)F)c1 | 22.16 |  | 
12 | COc1ccc(/C=C/C(=O)Nc2ccccc2N)cc1OCC(=O)Nc1ccc(Cl)c(Cl)c1 | > 200 |  | 
13 | COc1ccc(NC(=O)COc2cc(/C=C/C(=O)Nc3ccccc3N)ccc2OC)cc1 | 49.3 |  | 
14 | COc1ccc(/C=C/C(=O)Nc2ccccc2N)cc1OCC(=O)Nc1ccc(Br)cc1 | > 200 |  | 
15 | COc1ccc(/C=C/C(=O)Nc2ccccc2N)cc1OCC(=O)Nc1ccccc1F | 15.6 | 20.5 | 15.5
16 | COc1ccc(/C=C/C(=O)Nc2ccccc2N)cc1OCC(=O)Nc1cccc(F)c1 | 24.01 |  | 
17 | COc1ccc(/C=C/C(=O)Nc2ccccc2N)cc1OCC(=O)Nc1cc(C(F)(F)F)cc(C(F)(F)F)c1 | > 200 |  | 
18 | COc1ccc(/C=C/C(=O)Nc2ccccc2N)cc1OCC(=O)Nc1cc(Br)cc(C(F)(F)F)c1 | > 200 |  | 
19 | COc1ccc(/C=C/C(=O)Nc2ccc(C)cc2N)cc1OCC(=O)Nc1ccc(F)c(Cl)c1 | 31.32 |  | 
20 | COc1ccc(/C=C/C(=O)Nc2ccc(C)cc2N)cc1OCC(=O)Nc1cccc(C(F)(F)F)c1 | > 200 |  | 
21 | COc1ccc(/C=C/C(=O)Nc2ccc(C)cc2N)cc1OCC(=O)Nc1ccc(Cl)c(Cl)c1 | > 200 |  | 
22 | COc1ccc(NC(=O)COc2cc(/C=C/C(=O)Nc3ccc(C)cc3N)ccc2OC)cc1 | 164.61 |  | 
23 | COc1ccc(/C=C/C(=O)Nc2ccc(C)cc2N)cc1OCC(=O)Nc1ccc(Br)cc1 | 58.24 |  | 
24 | COc1ccc(/C=C/C(=O)Nc2ccc(C)cc2N)cc1OCC(=O)Nc1ccccc1F | 29.5 |  | 
25 | COc1ccc(/C=C/C(=O)Nc2ccc(C)cc2N)cc1OCC(=O)Nc1cccc(F)c1 | 71.02 |  | 
26 | COc1ccc(/C=C/C(=O)Nc2ccc(C)cc2N)cc1OCC(=O)Nc1cc(C(F)(F)F)cc(C(F)(F)F)c1 | 56.71 |  | 
27 | COc1ccc(/C=C/C(=O)Nc2ccc(C)cc2N)cc1OCC(=O)Nc1cc(Br)cc(C(F)(F)F)c1 | 124.67 |  | 
